Assay [1] deals with UDP-galactopyranose mutase (Mycobacterium tuberculosis, UniProt P9WIQ1). Description: Inhibitors of Mycobacterium tuberculosis UDP-galactopyranose mutase (UGM) enzyme Measured in Biochemical System Using Plate Reader - 2105-02_Inhibitor_Dose_CherryPick_Activity. [Related pubchem assays (depositor defined):AID504439].
The target in assay [2] is T1, Endoribonuclease toxin MazF (Escherichia coli K-12, UniProt P0AE70).
T1 sequence (P0AE70 whole entry): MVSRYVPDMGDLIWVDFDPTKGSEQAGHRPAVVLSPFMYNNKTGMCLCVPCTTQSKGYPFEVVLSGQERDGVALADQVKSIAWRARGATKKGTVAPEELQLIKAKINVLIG
Description: activation of MazEF endoribonuclease cleavage – biochemical, fluorescence, single-stranded RNA substrate, uHTS hits, dose response (AID 588481). The assay is classed as functional.

Assay [3] addresses T1, Endoribonuclease toxin MazF. Description: substrate-only fluorescence increase artefacts – biochemical, single-stranded RNase substrate, counter-screen for MazEF activator project, dose response (AID 588502). Type of assay: functional.
Assay [4] in a line: NIH3T3 cell viability loss – ATP luminescence, mouse fibroblasts, counter-screen, dose response (AID 2010).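 Further: cells exposed to compound for about 90 hours before reading.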 Type of assay: functional, cell-based.
Assay [5] in a line: Luminescence Cell-Based/Microorganism Confirmation at Dose of Inhibitors of Trypanosoma cruzi Infection. [Related pubchem assays: 1885, 1968 ]. Type of assay: functional.
Assay [6] can be described thus: T. cruzi infection blockers in NIH3T3 cells – beta-gal luminescence, NIH3T3 host cells, confirmation (AID 2630). Type of assay: functional, cell-based. Particulars: Mus musculus.
The nature of assay [7]: Trypanosoma cruzi growth suppression in host cells – NIH3T3 host cells, beta-gal luminescence, confirmation (AID 2044).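 Further: intracellular parasites grown in NIH/3T3 mouse fibroblasts as host cells; luminescent beta-galactosidase reporter signal from transgenic T. cruzi replicating inside host cells; inhibitors lower the luminescence signal.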 The assay is classed as functional, cell-based.
Assay [8] can be described thus: Luminescence Cell-Based Secondary HTS screen to identify cytotoxic compounds of NIH3T3 cells. [Related pubchem assays: 1885, 1968 ]. Type of assay: functional.
In another assay the target is CAAX prenyl protease 1 (Saccharomyces cerevisiae S288c, UniProt P47154). Briefly: yeast CAAX protease Ste24 inhibition – biochemical, S. cerevisiae, plate reader, cherry-pick, dose response (AID 488815).
Chain of CAAX prenyl protease 1 (P47154 whole entry): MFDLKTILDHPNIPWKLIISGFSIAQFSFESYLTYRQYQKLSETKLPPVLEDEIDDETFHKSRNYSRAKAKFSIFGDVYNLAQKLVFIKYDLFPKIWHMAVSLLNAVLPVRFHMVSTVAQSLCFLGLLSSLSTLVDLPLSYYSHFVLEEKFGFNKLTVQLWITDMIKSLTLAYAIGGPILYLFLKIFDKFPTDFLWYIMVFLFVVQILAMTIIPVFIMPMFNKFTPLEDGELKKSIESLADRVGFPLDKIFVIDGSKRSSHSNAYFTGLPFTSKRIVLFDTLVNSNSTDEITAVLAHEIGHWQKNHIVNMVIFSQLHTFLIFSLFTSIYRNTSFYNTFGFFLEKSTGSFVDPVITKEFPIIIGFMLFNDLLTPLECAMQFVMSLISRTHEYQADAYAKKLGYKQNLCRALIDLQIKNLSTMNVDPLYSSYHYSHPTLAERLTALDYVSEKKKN
In a further assay the target is T2, CAAX prenyl protease 2 (Homo sapiens, UniProt Q9Y256).
T2 sequence (Q9Y256 whole entry): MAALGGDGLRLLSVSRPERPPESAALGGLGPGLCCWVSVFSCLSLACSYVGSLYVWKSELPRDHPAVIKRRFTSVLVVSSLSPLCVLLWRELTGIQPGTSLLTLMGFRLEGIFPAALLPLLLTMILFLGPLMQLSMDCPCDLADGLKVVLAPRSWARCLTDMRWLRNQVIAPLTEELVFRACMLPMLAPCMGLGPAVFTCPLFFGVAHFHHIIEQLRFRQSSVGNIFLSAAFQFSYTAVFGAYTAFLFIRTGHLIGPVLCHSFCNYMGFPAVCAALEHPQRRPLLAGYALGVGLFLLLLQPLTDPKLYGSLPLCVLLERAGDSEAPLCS
Description: inhibition of Ras-converting CAAX protease Rce1 – biochemical, yeast membranes, quenched-peptide fluorescence, cherry-pick, dose response (AID 588849).

Assay [9] is described as follows: restored growth of temperature-sensitive Burl-1 yeast – whole organism, S. cerevisiae, Burl-1 ts mutant, luminescence, counter-screen for SUMOylation pathway inhibitor project, dose response (AID 463199). Type of assay: functional. In general terms: The purpose of a counterscreen is to sort out artefacts and off-target activity.
In assay [10] the target is T3, Mannose-6-phosphate isomerase (Homo sapiens, UniProt P34949).
T3 sequence (P34949 whole entry): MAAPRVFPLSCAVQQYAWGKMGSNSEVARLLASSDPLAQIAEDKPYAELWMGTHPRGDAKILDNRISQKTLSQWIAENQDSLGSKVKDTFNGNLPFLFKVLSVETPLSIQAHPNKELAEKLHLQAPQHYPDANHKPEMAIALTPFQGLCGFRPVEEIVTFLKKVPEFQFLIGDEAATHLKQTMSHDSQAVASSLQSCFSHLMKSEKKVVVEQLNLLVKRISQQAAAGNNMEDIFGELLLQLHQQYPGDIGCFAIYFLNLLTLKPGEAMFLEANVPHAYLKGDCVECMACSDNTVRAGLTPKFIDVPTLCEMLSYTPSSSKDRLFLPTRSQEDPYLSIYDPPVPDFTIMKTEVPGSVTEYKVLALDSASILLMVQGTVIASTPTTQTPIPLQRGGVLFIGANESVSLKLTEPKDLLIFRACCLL
Description: phosphomannose isomerase inhibition – biochemical, fluorescence intensity, confirmation (AID 1535).

The next assay deals with Phosphomannomutase 2 (Homo sapiens, UniProt O15305). Description: Counter screen SAR assay for PMM2 inhibitors via a fluorescence intensity assay. [Related pubchem assays (depositor defined):AID1545, AID1574].
Chain of Phosphomannomutase 2 (O15305 whole entry): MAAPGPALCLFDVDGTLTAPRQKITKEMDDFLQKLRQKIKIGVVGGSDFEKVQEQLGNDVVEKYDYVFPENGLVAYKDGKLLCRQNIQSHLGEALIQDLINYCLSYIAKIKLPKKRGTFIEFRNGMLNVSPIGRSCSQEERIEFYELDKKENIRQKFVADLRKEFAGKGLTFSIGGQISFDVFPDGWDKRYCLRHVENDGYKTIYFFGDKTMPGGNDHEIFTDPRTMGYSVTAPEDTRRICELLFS
Assay [11] relates to HEK293. Briefly: SAR Analysis of small molecule inhibitors of B-cell specific antigen receptor-induced NF-kB activation in a HEK-293T cell line using a luminescence assay - Set 2. [Related pubchem assays (depositor defined):AID435022, AID435025, AID489021]. Type of assay: functional, cell-based. Particulars: Homo sapiens.
In assay [12] the test system is HEK293. Description: HEK293T cell viability loss, resazurin readout – resazurin fluorescence, cytotoxicity control for NF-kB activator project, SAR follow-up (AID 493251). Particulars: Homo sapiens. The assay is classed as functional, cell-based.
The test system of a further assay is Jurkat. Briefly: SAR Analysis of small molecule inhibitors of […] specific antigen receptor-induced NF-kB activation in a Jurkat cell line using a luminescence assay - Set 3. [Related pubchem assays (depositor defined):AID435022, AID435025, AID465]. The assay is classed as functional, cell-based. Particulars: Homo sapiens.
The nature of assay [13]: non-specific 3'UTR reporter inhibition in Clone20-Shn3RL – cell-based, Renilla luciferase, cherry-picked, counter-screen for Shn3 inhibitor project, dose response (AID 624133). Type of assay: functional.
Assay [14] has as its target ATP-dependent molecular chaperone HSP82 (Candida albicans (strain WO-1) (Yeast), UniProt C4YTQ8). Description: steroid-induced GRE reporter decrease in yeast – S. cerevisiae, luminescence, Hsp90 inhibitor project, dose response (AID 2400).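 Further: beta-galactosidase luminescence from glucocorticoid response element reporter as proxy for Hsp90 function; inhibitor potency where signal loss means Hsp90 inhibition.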 Type of assay: functional, cell-based.
Assay [15] has as its target T4, Serine/threonine-protein phosphatase (Candida dubliniensis (strain CD36 / CBS 7987 / NCPF 3949 / NRRLY-17841) (Yeast), UniProt B9W6M3).
T4 sequence (B9W6M3 whole entry): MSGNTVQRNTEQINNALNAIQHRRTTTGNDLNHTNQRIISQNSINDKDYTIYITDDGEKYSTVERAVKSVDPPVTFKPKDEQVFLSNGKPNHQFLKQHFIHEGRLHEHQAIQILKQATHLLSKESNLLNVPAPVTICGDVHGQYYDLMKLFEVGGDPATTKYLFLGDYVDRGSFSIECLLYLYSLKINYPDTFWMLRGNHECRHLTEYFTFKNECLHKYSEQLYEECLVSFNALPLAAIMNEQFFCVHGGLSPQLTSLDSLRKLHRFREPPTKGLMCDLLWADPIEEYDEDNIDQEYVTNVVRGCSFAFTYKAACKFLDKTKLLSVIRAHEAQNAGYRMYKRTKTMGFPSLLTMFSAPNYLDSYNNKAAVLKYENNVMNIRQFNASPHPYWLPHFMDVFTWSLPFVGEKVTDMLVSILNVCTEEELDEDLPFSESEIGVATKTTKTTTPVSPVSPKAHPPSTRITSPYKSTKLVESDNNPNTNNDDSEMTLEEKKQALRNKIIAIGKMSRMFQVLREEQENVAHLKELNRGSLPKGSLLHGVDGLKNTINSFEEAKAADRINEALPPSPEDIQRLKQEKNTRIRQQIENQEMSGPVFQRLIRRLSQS
Description: blockers of CaCl2-induced CDRE-lacZ signaling – S. cerevisiae, luminescence, secondary, dose response (AID 2388).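 Further: yeast reporter cells carrying a calcineurin-responsive lacZ construct stimulated with calcium chloride; luminescent beta-galactosidase reporter signal in whole cells rather than isolated phosphatase activity; potency for inhibition where a drop in reporter signal means calcineurin blockade.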 The assay is classed as functional, cell-based.

Assay [16] can be described thus: reduction of Shn3 3'UTR-driven luciferase in osteoblasts – cell-based, Clone20 osteoblasts, firefly luciferase, cherry-picked, dose response (AID 624132).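 Further: firefly luciferase luminescence from reporter carrying the Shn3 3'UTR in osteoblasts.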 The assay is classed as functional.
Assay [17] in a line: mammalian cell viability loss – Alamar Blue, dry powder, cytotoxicity control for antifungal single agent project, dose response (AID 602188). The assay is classed as functional, cell-based.
Assay [18] has as its system HEK293. Description: EBV LMP1 TES2 canonical NF-kB signalling blockers – cell-based, HEK293, luciferase, cherry-pick, dose response (AID 588343). Type of assay: functional. Particulars: Homo sapiens.
The target in assay [19] is Heat shock protein HSP 90-alpha (Homo sapiens, UniProt P07900). Type of assay: functional, organism-based.
For assay [20], the target named is T4, Serine/threonine-protein phosphatase. Description: Fluorescence Cell-Based Secondary Assay to Identify Inhibitors of Calcineurin. [Related pubchem assays (depositor defined):AID1979, AID2007]. Type of assay: functional.
The target of another assay is T5, Estrogen receptor (Homo sapiens, UniProt P03372).
T5 sequence (P03372 whole entry): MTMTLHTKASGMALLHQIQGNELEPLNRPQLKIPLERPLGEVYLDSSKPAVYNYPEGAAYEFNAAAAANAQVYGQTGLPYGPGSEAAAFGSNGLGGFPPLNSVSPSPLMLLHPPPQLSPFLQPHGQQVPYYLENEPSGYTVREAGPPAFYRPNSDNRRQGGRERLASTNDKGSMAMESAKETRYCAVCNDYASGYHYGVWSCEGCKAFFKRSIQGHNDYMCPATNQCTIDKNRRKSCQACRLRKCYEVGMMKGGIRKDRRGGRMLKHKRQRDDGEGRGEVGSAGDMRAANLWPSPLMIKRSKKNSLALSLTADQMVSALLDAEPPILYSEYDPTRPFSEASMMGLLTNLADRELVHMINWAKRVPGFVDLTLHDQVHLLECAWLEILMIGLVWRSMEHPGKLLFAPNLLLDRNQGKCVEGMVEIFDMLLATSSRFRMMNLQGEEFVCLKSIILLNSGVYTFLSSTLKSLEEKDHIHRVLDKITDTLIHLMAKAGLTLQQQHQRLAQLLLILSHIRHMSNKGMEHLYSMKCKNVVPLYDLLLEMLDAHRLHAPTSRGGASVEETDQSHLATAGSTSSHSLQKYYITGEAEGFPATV
Briefly: ERα coactivator recruitment enhancers – biochemical, TR-FRET, ERα LBD, dose response (AID 737). (In TR-FRET formats the signal depends on donor and acceptor labels being close together.)

Assay [21] can be described thus: loss of viability in HepG2 cells – cell-based, CellTiter-Glo, cherry-picked, cytotoxicity control for Shn3 inhibitor project, dose response (AID 624134). The assay is classed as functional. In general terms: In ATP-based viability assays light output follows the ATP content of the culture.
Assay [22] has as its target E3 ubiquitin-protein ligase Mdm2 (Homo sapiens, UniProt Q00987). Description: MDM2-luc reporter signal enhancers, multi-concentration potency testing, MDM2 ubiquitin-protein ligase inhibitor program, whole-cell format, luminescence detection, 384-well microplate (AID 1394).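 Further: MDM2 E3 inhibitors raise luminescence so EC50 is for signal enhancement.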 Type of assay: functional.
The nature of assay [23]: NIH-3T3 fibroblast cytotoxicity, dose response, cytotoxicity control, cell-based, fluorescence, Alamar Blue, secondary assay (AID 2327).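 Further: NIH-3T3 mouse fibroblasts cultured with fluconazole at 8 µg/mL.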 The assay is classed as functional.
Assay [24] can be described thus: fluconazole-exposed Candida albicans growth modulators – fluorescence, retest, confirmation (AID 2467). The assay is classed as functional, cell-based.
A further assay deals with INS1. Briefly: INS-1E survival protection against cytokine death – cell-based, luminescence, retest, dose response (AID 449756).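 Further: cell death triggered by IL-1 beta plus TNF-alpha plus IFN-gamma mixture; protective hits raise ATP signal compared with cytokine alone wells.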 Type of assay: functional. Particulars: Rattus norvegicus.

Here are results for seven compounds from ChEMBL document CHEMBL1201862, “PubChem BioAssay data set” (2004).

Structures are written as SMILES. Active and inactive are the calls of the source.

Chain of ATP-dependent molecular chaperone HSP82 (C4YTQ8 whole entry): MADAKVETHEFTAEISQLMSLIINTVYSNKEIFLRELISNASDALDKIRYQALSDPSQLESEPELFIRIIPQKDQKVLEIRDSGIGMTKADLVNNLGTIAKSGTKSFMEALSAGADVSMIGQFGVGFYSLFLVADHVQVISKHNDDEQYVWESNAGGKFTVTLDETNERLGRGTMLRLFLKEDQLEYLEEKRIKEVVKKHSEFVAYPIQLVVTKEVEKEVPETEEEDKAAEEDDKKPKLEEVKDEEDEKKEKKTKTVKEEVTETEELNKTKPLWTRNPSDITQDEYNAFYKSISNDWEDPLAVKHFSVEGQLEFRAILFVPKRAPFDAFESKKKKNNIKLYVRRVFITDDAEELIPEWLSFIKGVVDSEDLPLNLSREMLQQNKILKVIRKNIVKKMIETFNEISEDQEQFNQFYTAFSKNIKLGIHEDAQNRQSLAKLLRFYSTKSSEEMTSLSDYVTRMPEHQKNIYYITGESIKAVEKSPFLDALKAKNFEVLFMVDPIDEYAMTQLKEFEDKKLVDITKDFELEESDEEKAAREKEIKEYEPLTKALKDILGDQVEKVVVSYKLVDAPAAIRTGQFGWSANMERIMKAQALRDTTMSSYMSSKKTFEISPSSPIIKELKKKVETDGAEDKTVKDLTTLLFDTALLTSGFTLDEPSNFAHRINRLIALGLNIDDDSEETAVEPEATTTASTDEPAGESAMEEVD
Chain of E3 ubiquitin-protein ligase Mdm2 (Q00987 whole entry): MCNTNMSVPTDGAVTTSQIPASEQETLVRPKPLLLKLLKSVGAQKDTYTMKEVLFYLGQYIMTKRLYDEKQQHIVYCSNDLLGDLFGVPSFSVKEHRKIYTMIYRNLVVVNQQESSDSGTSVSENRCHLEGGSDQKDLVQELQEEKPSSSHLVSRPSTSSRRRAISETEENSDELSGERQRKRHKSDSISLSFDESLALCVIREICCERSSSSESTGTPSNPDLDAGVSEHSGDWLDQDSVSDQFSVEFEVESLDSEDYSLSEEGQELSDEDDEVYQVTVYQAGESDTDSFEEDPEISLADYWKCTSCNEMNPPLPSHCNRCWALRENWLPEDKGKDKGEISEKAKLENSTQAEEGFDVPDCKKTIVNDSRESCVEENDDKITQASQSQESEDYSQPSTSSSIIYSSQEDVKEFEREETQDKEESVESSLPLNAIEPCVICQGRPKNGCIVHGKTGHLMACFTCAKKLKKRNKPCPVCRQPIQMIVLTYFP
Chain of UDP-galactopyranose mutase (P9WIQ1 whole entry): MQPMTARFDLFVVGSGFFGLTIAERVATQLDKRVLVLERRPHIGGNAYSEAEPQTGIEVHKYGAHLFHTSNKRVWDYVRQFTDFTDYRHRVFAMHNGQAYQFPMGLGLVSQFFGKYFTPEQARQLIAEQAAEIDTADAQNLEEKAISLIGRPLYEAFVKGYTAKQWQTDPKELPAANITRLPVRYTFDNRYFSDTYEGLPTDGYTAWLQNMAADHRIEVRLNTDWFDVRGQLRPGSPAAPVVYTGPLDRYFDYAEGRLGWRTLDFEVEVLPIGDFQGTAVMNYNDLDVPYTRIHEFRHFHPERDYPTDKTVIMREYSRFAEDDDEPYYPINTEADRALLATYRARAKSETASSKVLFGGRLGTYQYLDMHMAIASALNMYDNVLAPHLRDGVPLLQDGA

On to `Cc1cccc(N2C(=O)NC(=O)/C(=C/c3cc4c(cc3[N+](=O)[O-])OCO4)C2=O)c1`, for which the half-maximal activity concentration (AC50) in assay [1] was 45 µM (active). Further, the EC50 in assay [2] and in assay [3] was > 99 µM (inactive) in each case.

`CC(C)Oc1cccc(C(=O)C2CCCN(Cc3cnc(N4CCCC4)s3)C2)c1` (stereo not given): the EC50 in [4] was > 60 µM (not active); in assay [5], 0.606 µM (active); in [6], 0.607 µM (active); in assay [7], 0.14 µM (active); in assay [8], 63.8 µM (active).

On to `CCOc1cccc(-c2nn(-c3ccccc3)cc2/C=C(/C#N)C(=O)NCCCn2ccnc2)c1`, for which the AC50 on CAAX prenyl protease 1 was 7.93 µM (active); on CAAX prenyl protease 2 it was 22.3 µM (active).

For the compound `O=C1CC(c2ccccc2)C(=O)N1c1cccc(O)c1` (stereo not given), the AC50 in assay [9] is 53.6 µM (active).

As to `Cc1cccc(/N=c2\ssnc2Cl)c1`, the IC50 (in assay [10]; on Phosphomannomutase 2) was > 100 µM (inactive) throughout.

For `CCOc1ccccc1NC(=O)CCc1nc(-c2ccc(C(C)(C)C)cc2)no1`, the IC50 with HEK293 [11] was 0.46 µM (active); in the assay with HEK293 [12] it was > 80 µM (inactive); in the assay with Jurkat, 1.02 µM (active).

For the compound `O=C(Nc1nc(-c2ccccn2)cs1)c1ccc(Br)s1`, the AC50 is 0.743 µM (active) in assay [13]; 1 µM (active) in [16]; 0.991 µM (active) in assay [17]; 0.637 µM (active) in the assay on HEK293 [18]; 1.83 µM (active) in [19]; 3.78 µM (active) in assay [21]. In the assay on INS1, the AC50 was 1.03 µM (active). Further, the concentration for a half-maximal effect (EC50) in assay [14] was 4.31 µM (active); in assay [15], > 180 µM (inactive); in assay [20], 15.7 µM (active); on Estrogen receptor, 24.5 µM (not active); in assay [22], 22.7 µM (not active); in assay [23], > 160 µM (inactive). For the same compound, in assay [24], the EC50 is 1.81 µM (active).

A word on the AC50: it is the concentration giving half of the maximal activity seen. The term EC50 denotes the concentration that produces a half-maximal response. Broadly, the IC50 is the concentration that gives 50% inhibition.
